The text below walks through data of patent US11945806B2, “Stabilization of amyloidogenic immunoglobulin light chains” (The Scripps Research Institute, priority 2019, dated 2024).

The assay deals with WIL-FL (Homo sapiens, UniProt P01721). Put plainly: Unlabeled LC Protease Sensitivity Assay (proteinase K). The assay is classed as biochemical. Particulars: small molecule 10 μM, WIL-FL 5 μM, proteinase K 50 nM, 2 hours at 37° C. The method, then: Unlabeled LC Protease Sensitivity Assay. WIL-FL (5 μM) in phosphate-buffered saline (PBS, pH 7.4)+0.02% Pluronic F-127 was incubated with proteinase K (50 nM) with small molecule (10 μM) in 1% DMSO vehicle, or vehicle alone. After 2 hours at 37° C., reactions were quenched with 2 mM phenylmethyl sulfonyl fluoride in methanol and centrifuged at 14,000 rpm for 2 minutes. Remaining WIL-FL was quantified by injecting 10 μL of the supernatant into a Waters Acquity H-Class Bio-UPLC (ultra performance liquid chromatography) instrument equipped with a BEH200 analytical size-exclusion column (1.7 μm, 4.6×150 mm) under isocratic conditions (0.2 mL/min, PBS+1 mM EDTA, 2400 psi backpressure, 15 min), monitoring absorbance at 280 nm. Activity of each compound is given as fold protection from protease=(A_compound−A_vehicle)/(A_no_protease−A_vehicle), where each “A” corresponds to peak integration of the respective treatment.
For the compound `CC(C)CC1NC(=O)N(CC(=O)Nc2ccc(C(F)(F)F)cc2)C1=O` (single isomer, unassigned) [Compound 22], the “Protection (fold protection of LC from protease)” value is recorded as “A (A < 0.3))”.

As for `CC(C)CC1NC(=O)N(CC(=O)Nc2ccc(C(F)(F)F)cc2)C1=O` (single isomer, unassigned) [Compound 23], the “Protection (fold protection of LC from protease)” value was “A (A < 0.3))”.

On to `CCN(CC)c1ccc2c(C(F)(F)F)cc(=O)oc2c1` [Compound 24], for which the “Protection (fold protection of LC from protease)” value was “A (A < 0.3))”.

On to `CCN(CC)c1ccc2c(C)cc(=O)[nH]c2c1` [Compound 25, 7-(diethylamino)-4-methylquinolin-2(1H)-one], for which the “Protection (fold protection of LC from protease)” value is “A (A < 0.3))”.

In the case of `CCN(CC)c1ccc2cc(C#N)c(=N)oc2c1` [Compound 26, 7-(diethylamino)-2-imino-2H-chromene-3-carbonitrile], the “Protection (fold protection of LC from protease)” value is on record as “A (A < 0.3))”.

Take `CCN(CC)c1ccc2c(O)cc(=O)oc2c1` [Compound 27, 7-(diethylamino)-4-hydroxy-2H-chromen-2-one]: the “Protection (fold protection of LC from protease)” value is reported as “A (A < 0.3))”.

For `Cc1cc(=O)oc2cc(NCc3ccccc3)ccc12` [Compound 28, 7-(benzylamino)-4-methyl-2H-chromen-2-one], the “Protection (fold protection of LC from protease)” value is “A (A < 0.3))”.

With `Cc1cc(=O)oc2cc(NCc3ccoc3)ccc12` [Compound 29, 7-((furan-3-ylmethyl)amino)-4-methyl-2H-chromen-2-one], the “Protection (fold protection of LC from protease)” value is recorded as “A (A < 0.3))”.

On to `Cc1cc(=O)oc2cc(NCCCc3ccccc3)ccc12` [Compound 30, 4-methyl-7-((3-phenylpropyl)amino)-2H-chromen-2-one], for which the “Protection (fold protection of LC from protease)” value is on record as “A (A < 0.3))”.

Take `CCN(CCCc1ccccc1)c1ccc2c(C)cc(=O)oc2c1` [Compound 31, 7-(ethyl(3-phenylpropyl)amino)-4-methyl-2H-chromen-2-one]: the “Protection (fold protection of LC from protease)” value was “A (A < 0.3))”.

With `CCC(C)Oc1ccc2c(C)cc(=O)oc2c1` (stereo not shown) [Compound 32, 7-(sec-butoxy)-4-methyl-2H-chromen-2-one], the “Protection (fold protection of LC from protease)” value is “A (A < 0.3))”.

On to `CCCOc1ccc2c(C)cc(=O)oc2c1` [Compound 33, 4-methyl-7-propoxy-2H-chromen-2-one], for which the “Protection (fold protection of LC from protease)” value is listed as “A (A < 0.3))”.

Consider `Cc1cc(=O)oc2cc(OCCN)ccc12` [Compound 34, 7-(2-aminoethoxy)-4-methyl-2H-chromen-2-one], for which the “Protection (fold protection of LC from protease)” value is on record as “A (A < 0.3))”.

Regarding `CCN(Cc1ccccc1)c1ccc2c(C)cc(=O)oc2c1` [Compound 35, 7-(benzyl(ethyl)amino)-4-methyl-2H-chromen-2-one], the “Protection (fold protection of LC from protease)” value is listed as “A (A < 0.3))”.

With `Cc1cc(=O)oc2cc(N3CCCC3)ccc12` [Compound 36, 4-methyl-7-(pyrrolidin-1-yl)-2H-chromen-2-one], the “Protection (fold protection of LC from protease)” value is reported as “A (A < 0.3))”.

In the case of `CCN(CCc1ccccc1)c1ccc2c(C)cc(=O)oc2c1` [Compound 37, 7-(ethyl(phenethyl)amino)-4-methyl-2H-chromen-2-one], the “Protection (fold protection of LC from protease)” value was “A (A < 0.3))”.

With `Cc1cc(=O)oc2cc(NC(C)c3ccccc3)ccc12` (stereo not shown) [Compound 39, 4-methyl-7-((1-phenylethyl)amino)-2H-chromen-2-one], the “Protection (fold protection of LC from protease)” value is on record as “A (A < 0.3))”.

In the case of `Cc1cc(=O)oc2cc(NCCc3ccccc3)ccc12` [Compound 40, 4-methyl-7-(phenethylamino)-2H-chromen-2-one], the “Protection (fold protection of LC from protease)” value is “A (A < 0.3))”.

Regarding `CCC(Oc1ccc2c(C)cc(=O)oc2c1)c1ccccc1` (stereo not shown) [Compound 41, 4-methyl-7-(1-phenylpropoxy)-2H-chromen-2-one], the “Protection (fold protection of LC from protease)” value is “A (A < 0.3))”.

As for `Cc1cc(=O)oc2cc(OC(c3ccccc3)c3ccccc3)ccc12` [Compound 42, 7-(benzhydryloxy)-4-methyl-2H-chromen-2-one], the “Protection (fold protection of LC from protease)” value is reported as “A (A < 0.3))”.

As to `Cc1cc(=O)oc2cc(OCC(C)c3ccccc3)ccc12` (stereo not shown) [Compound 43, 4-methyl-7-(2-phenylpropoxy)-2H-chromen-2-one], the “Protection (fold protection of LC from protease)” value is “B (3 ≤ B < 0.6)”.

`Cc1cc(=O)oc2cc(OC(C)c3ccc(F)cc3)ccc12` (stereo not shown) [Compound 44, 7-(1-(4-fluorophenyl)ethoxy)-4-methyl-2H-chromen-2-one]: the “Protection (fold protection of LC from protease)” value is given as “A (A < 0.3))”.

Regarding `Cc1ccccc1C(C)Oc1ccc2c(C)cc(=O)oc2c1` (stereo not shown) [Compound 45, 4-methyl-7-(1-(o-tolyl)ethoxy)-2H-chromen-2-one], the “Protection (fold protection of LC from protease)” value is listed as “A (A < 0.3))”.

With `Cc1cc(=O)oc2cc(OCCC(C)c3ccccc3)ccc12` (stereo not shown) [Compound 46, 4-methyl-7-(3-phenylbutoxy)-2H-chromen-2-one], the “Protection (fold protection of LC from protease)” value was “A (A < 0.3))”.

On to `Cc1cc(=O)oc2cc(OC(C)Cc3ccccc3)ccc12` (stereo not shown) [Compound 47, 4-methyl-7-((1-phenylpropan-2-yl)oxy)-2H-chromen-2-one], for which the “Protection (fold protection of LC from protease)” value is “A (A < 0.3))”.

As to `Cc1cc(=O)oc2cc(N3CCCCC3)ccc12` [Compound 48, 4-methyl-7-(piperidin-1-yl)-2H-chromen-2-one], the “Protection (fold protection of LC from protease)” value is on record as “A (A < 0.3))”.

With `Cc1cc(=O)oc2cc(OC(C)c3ccccc3F)ccc12` (stereo not shown) [Compound 49, 7-(1-(2-fluorophenyl)ethoxy)-4-methyl-2H-chromen-2-one], the “Protection (fold protection of LC from protease)” value is given as “A (A < 0.3))”.

In the case of `Cc1cc(=O)oc2cc(OC(C)c3c(F)cccc3F)ccc12` (stereo not shown) [Compound 51, 7-(1-(2,6-difluorophenyl)ethoxy)-4-methyl-2H-chromen-2-one], the “Protection (fold protection of LC from protease)” value is “A (A < 0.3))”.

For `CCN(CC)c1ccc2c(C)cc(=O)n(C)c2c1` [Compound 52, 7-(diethylamino)-1,4-dimethylquinolin-2(1H)-one], the “Protection (fold protection of LC from protease)” value is “A (A < 0.3))”.

For the compound `CCN(CC)c1ccc2c(C)c(CCO)c(=O)oc2c1` [Compound 53, 7-(diethylamino)-3-(2-hydroxyethyl)-4-methyl-2H-chromen-2-one], the “Protection (fold protection of LC from protease)” value is on record as “A (A < 0.3))”.

For `CCN(CC)c1ccc2c(C)c(CC(=O)O)c(=O)oc2c1` [Compound 54, 2-(7-(diethylamino)-4-methyl-2-oxo-2H-chromen-3-yl)acetic acid], the “Protection (fold protection of LC from protease)” value was “A (A < 0.3))”.

Take `CCN(CC)c1ccc2c(C)c(CC(=O)NCCc3ccccc3)c(=O)oc2c1` [Compound 55, 2-(7-(diethylamino)-4-methyl-2-oxo-2H-chromen-3-yl)-N-phenethylacetamide]: the “Protection (fold protection of LC from protease)” value was “A (A < 0.3))”.

For the compound `CCN(CC)c1ccc2c(C)c(CC(=O)NCCCc3ccccc3)c(=O)oc2c1` [Compound 56, 2-(7-(diethylamino)-4-methyl-2-oxo-2H-chromen-3-yl)-N-(3-phenylpropyl)acetamide], the “Protection (fold protection of LC from protease)” value was “A (A < 0.3))”.

For `CCN(CC)c1ccc2c(C)c(CC(=O)NCCCCc3ccccc3)c(=O)oc2c1` [Compound 57, 2-(7-(diethylamino)-4-methyl-2-oxo-2H-chromen-3-yl)-N-(4-phenylbutyl)acetamide], the “Protection (fold protection of LC from protease)” value is listed as “A (A < 0.3))”.
